Results: patent publication US6046289A, “Propenamide derivatives containing Arg-Gly-Asp polymers obtained therefrom” (priority 1990, dated 2000)

Tested on: human plasma rich in platelet
Assay: Platelet coagulation-inhibitory activity in vitro (aggregometer, ADP or collagen stimulation)
Type: cell-based
Procedure: The platelet coagulation-inhibitory effect of the compounds of the present invention was assayed, in vitro, using human plasma rich in platelet. The experimental method will be described below.
To fresh human blood, there was added 1/9 volume of a 3.8% sodium citrate solution, the resulting mixture was centrifuged (1000 rpm; for 10 minutes) and the upper layer was separated as a plasma rich in platelet. The propenamide derivatives, the polymers thereof, the copolymers thereof or salts thereof obtained through lyophilization were dissolved in physiological saline to give a plurality of solutions having various concentrations ranging from 0 to 1.5 mg/ml. Each of the solutions (25 μl) was added to 200 μl of the plasma, incubated at 37° C. for 3 minutes, then a 50 μM of ADP (adenosine diphosphate) solution or a 200 μg/ml collagen solution was added to determine the extent of coagulation in terms of transmittance determined by an aggregometer.
Rate of Coagulation Inhibition=(1-T/T0)×100%
T0 : Transmittance observed when the propenamide derivatives, the polymers thereof, the copolymers thereof or salts thereof were not added.
T: Transmittance observed when the propenamide derivatives, the polymers thereof, the copolymers thereof or salts thereof were added.

Platelet Coagulation-Inhibitory Activity IC50 ADP Stimulation (ADP Stimulation): C (more than 80)
Platelet Coagulation-Inhibitory Activity IC50 Collagen Stimulation (Collagen Stimulation): C (more than 80)
Substance: trimethylammonioethyl methacrylamide [Preparation product 14]
